Assay results taken from patent US20250186456A1, “PYRIMIDINE-FUSED CYCLIC COMPOUND AND PREPARATION METHOD AND USE THEREOF” (Genfleet Therapeutics (Shanghai) Inc., priority 2021, published 2025).
Read-outs that look alike come from different tables or passages of the source.

Assays:
Type in all cases: cell-based, human
[1] = system: p-ERK in AGS cells (KRAS G12D mutation); experiment: Cell p-ERK assay (HTRF, Advance ERK phospho-T202/Y204 kit); conditions: AGS cells, 3 hours incubation with compound, HTRF, read-out: AGS p-ERK IC50
Summary of the method: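 Phospho-ERK (T202/Y204) measured by HTRF in lysates of human gastric AGS cells carrying KRAS G12D, after 3 h compound exposure at 0.1% DMSO over a 3.16-fold series. Percent inhibition relative to DMSO control and lysis-only blank; four-parameter curve fitting gave IC50.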

[2] = system: AsPC-1 cells (KRAS G12D mutation); experiment: Cell proliferation inhibition assay, 3D, CellTiter-Glo 3D, AsPC-1; conditions: AsPC-1 3D sphere model, 5 days incubation
Summary of the method: (§1)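 Spheroids (800 AsPC-1 or 400 AGS cells/well; RPMI-1640 or F-12K with 10% FBS) formed overnight, then were dosed on day 2 with a 3.16-fold series at 0.1% DMSO. After 5 days, viability was read by CellTiter-Glo 3D luminescence, and IC50 came from four-parameter fits of inhibition versus DMSO control and medium blank.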

[3] = system: AGS cells (KRAS G12D); experiment: Cell proliferation inhibition assay, 3D, CellTiter-Glo 3D, AGS; conditions: AGS 3D sphere model, 5 days incubation
Summary of the method: as §1

For `C#Cc1c(F)ccc2cccc(-c3nc4c5c(nc(OCC67CCC8(CC8)N6CC(=C)C7)nc5c3F)N3C[C@H]5CC[C@H](N5)[C@H]3[C@H](C)O4)c12` (stereo partly drawn) [Example Z597], the IC50 [1] was 48.5 nM, the IC50 [2] was 98.7 nM and the IC50 [3] was 47.9 nM.

`C#Cc1cccc2cccc(-c3nc4c5c(nc(OCC67CCCN6CC(=C)C7)nc5c3F)N3C[C@H]5CC[C@H](N5)[C@H]3[C@H](CC)O4)c12` (stereo partly drawn) [Example Z595, (5S,5aS,6S,9R)-5-ethyl-2-(8-ethynylnaphthalen-1-yl)-1-fluoro-12-((2-methylenetetrahydro-1H-pyrrolizin-7a (5H)-yl)methoxy)-5a,6,7,8,9,10-hexahydro-5H-4-oxa-3,10a,11,13,14-pentaaza-6,9-methanonaphtho[1,8-ab]heptalene] showed an IC50 ([1]; Homo sapiens) of 119 nM, an IC50 ([2]; Homo sapiens, ASPC1, 120 h) of 157 nM and an IC50 ([3]; Homo sapiens, 120 h) of 99 nM.

`C#Cc1c(F)ccc2cccc(-c3nc4c5c(nc(OCC67CC(=C)CN6CCC7=C)nc5c3F)N3C[C@H]5CC[C@H](N5)[C@H]3[C@H](C)O4)c12` (stereo partly drawn) [Example Z610, (5S,5aS,6S,9R)-12-((1,6-dimethylenetetrahydro-1H-pyrrolizin-7a (5H)-yl)methoxy)-2-(8-ethynyl-7-fluoronaphthalen-1-yl)-1-fluoro-5-methyl-5a,6,7,8,9,10-hexahydro-5H-4-oxa-3,10a, 11,13,14-pentaaza-6,9-methanonaphtho[1,8-ab]heptalene] was tested, and the IC50 ([1]; Homo sapiens) was 17.2 nM, the IC50 ([2]; Homo sapiens, ASPC1, 120 h) was 42.3 nM and the IC50 ([3]; Homo sapiens, 120 h) was 18.6 nM.

`C[C@@H]1Oc2nc(-c3cc(N)cc4ccc(F)c(F)c34)c(F)c3nc(OCC45CCCN4CC(F)(F)C5)nc(c23)N2C[C@H]3CC[C@H](N3)[C@@H]12` (stereo partly drawn) [Example Z720, 4-((5S,5aS,6S,9R)-12-((2,2-difluorotetrahydro-1H-pyrrolizin-7a (5H)-yl)methoxy)-1-fluoro-5-methyl-5a,6,7,8,9,10-hexahydro-5H-4-oxa-3,10a, 11,13,14-pentaaza-6,9-methanonaphtho[1,8-ab]heptalene-2-yl)-5,6-difluoronaphthalen-2-amine] gave an IC50 ([1]; Homo sapiens) of 35.1 nM, an IC50 ([2]; Homo sapiens, ASPC1, 120 h) of 33.4 nM and an IC50 ([3]; Homo sapiens, 120 h) of 15.7 nM.

For `C#Cc1cccc2c(F)c(N)cc(-c3nc4c5c(nc(OCC6(CN7CCOCC7)CC6)nc5c3F)N3C[C@H]5CC[C@H](N5)[C@H]3[C@H](C)O4)c12` [Example Z715, 5-ethynyl-1-fluoro-4-((5S,5aS,6S,9R)-1-fluoro-5-methyl-12-((1-(morpholinomethyl)cyclopropyl)methoxy)-5a,6,7,8,9,10-hexahydro-5H-4-oxa-3,10a, 11,13, 14-pentaaza-6,9-methanonaphtho[1,8-ab]heptalen-2-yl) naphthalen-2-amine], the IC50 ([1]; Homo sapiens) was 1.94 nM, the IC50 ([2]; Homo sapiens, ASPC1, 120 h) was 3.83 nM and the IC50 ([3]; Homo sapiens, 120 h) was 3.44 nM.

With `C#Cc1c(F)ccc2cc(N)cc(-c3nc4c5c(nc(OCC67CCCN6CC(F)(F)C7)nc5c3F)N3C[C@H]5CC[C@H](N5)[C@H]3[C@H](C)O4)c12` (stereo partly drawn) [Example Z722, 4-((5S,5aS,6S,9R)-12-((2,2-difluorotetrahydro-1H-pyrrolizin-7a (5H)-yl)methoxy)-1-fluoro-5-methyl-5a,6,7,8,9,10-hexahydro-5H-4-oxa-3,10a, 11,13,14-pentaaza-6,9-methanonaphtho[1,8-ab]heptalene-2-yl)-5-ethynyl-6-fluoronaphthalen-2-amine] the IC50 ([1]; Homo sapiens) was 7.22 nM, the IC50 ([2]; Homo sapiens, ASPC1, 120 h) was 9.29 nM and the IC50 ([3]; Homo sapiens, 120 h) was 12.8 nM.

In the case of `C#Cc1c(F)ccc2cccc(-c3nc4c5c(nc(OCC67CC(=C)CN6C[C@H](OC)C7)nc5c3F)N3C[C@H]5CC[C@H](N5)[C@H]3[C@H](C)O4)c12` (stereo partly drawn) [Example Z691, (5S,5aS,6S,9R)-2-(8-Ethynyl-7-Fluoronaphthalen-1-Yl)-1-Fluoro-12-(((2R)-2-Methoxy-6-Methylenetetrahydro-1H-Pyrrolizin-7a (5H)-Yl)Methoxy)-5-Methyl-5a,6,7,8,9,10-Hexahydro-5H-4-Oxa-3,10a,11,13,14-Pentaaza-6,9-Methanonaphtho[1,8-Ab]Heptalene], the IC50 ([1]; Homo sapiens) is reported as 14.2 nM, the IC50 ([2]; Homo sapiens, ASPC1, 120 h) is reported as 87.9 nM and the IC50 ([3]; Homo sapiens, 120 h) is reported as 54.6 nM.

Work on `C#Cc1c(F)ccc2cc(O)cc(-c3nc4c5c(nc(OC[C@@]67CCCN6C[C@H](F)C7)nc5c3F)N3C[C@H]5CC[C@H](N5)[C@H]3[C@H](C)O4)c12` [Example Z552, 5-ethynyl-6-fluoro-4-((5S,5aS,6S,9R)-1-fluoro-12-(((2R,7aS)-2-fluorotetrahydro-1H-pyrrolizin-7a (5H)-yl)methoxy)-5-methyl-5a,6,7,8,9,10-hexahydro-5H-4-oxa-3,10a,11,13,14-pentaaza-6,9-methanonaphtho[1,8-ab]heptalen-2-yl) naphthalen-2-ol] yielded an IC50 ([1]; Homo sapiens) of 0.67 nM, an IC50 ([2]; Homo sapiens, ASPC1, 120 h) of 5.77 nM and an IC50 ([3]; Homo sapiens, 120 h) of 0.53 nM.

`C#Cc1c(F)ccc2cccc(-c3nc4c5c(nc(OCC67CCCN6[C@@H]6C[C@@H]6C7)nc5c3F)N3C[C@H]5CC[C@H](N5)[C@H]3[C@H](C)O4)c12` (stereo partly drawn) [Example Z624, (5S,5aS,6S,9R)-2-(8-ethynyl-7-fluoronaphthalen-1-yl)-1-fluoro-12-(((1aR,6aR)-hexahydrocyclopropa[b]pyrrolizin-5a (3H)-yl)methoxy)-5-methyl-5a,6,7,8,9,10-hexahydro-5H-4-oxa-3,10a, 11, 13, 14-pentaaza-6,9-methanonaphtho[1,8-ab]heptalene] was tested, and the IC50 ([1]; Homo sapiens) was 47.3 nM, the IC50 ([2]; Homo sapiens, ASPC1, 120 h) was 194 nM and the IC50 ([3]; Homo sapiens, 120 h) was 88.2 nM.
